From US7517874B2 (priority 2007, dated 2009)
Read-outs that look alike come from different tables or passages of the source.

Assays:
rats = experiment: Spinal nerve ligation (SNL) model of neuropathic pain; format: in vivo; details: rat, oral 3, 10 and 30 mg/kg, FIG. 4
Description: The SNL model (Kim and Chung 1992) was used to induce chronic neuropathic pain in rats. The rats were anesthetized with isoflurane, the left L5 transverse process was removed, and the L5 and L6 spinal nerves were tightly ligated with 6-0 silk suture. The wound was then closed with internal sutures and external staples. Following at least seven days post SNL, baseline, post-injury and post-treatment values for non-noxious mechanical sensitivity were evaluated using eight Semmes-Weinstein filaments (Stoelting, Wood Dale, Ill., USA) with varying stiffness (0.4, 0.7, 1.2, 2.0, 3.6, 5.5, 8.5, and 15 g) according to the up-down method (Chaplan et al. 1994). Animals were placed on a perforated metallic platform and allowed to acclimate to their surroundings for a minimum of thirty minutes before testing. The mean and standard error of the mean (SEM) were determined for the injured paw in each treatment group. Since this stimulus is normally not considered painful, significant injury-induced increases in responsiveness in this test are interpreted as a measure of mechanical allodynia. The dose which elicited 50% attenuation of mechanical hypersensitivity (ED50) was determined using linear regression analysis. Results obtained after oral administration of compound 317 at 3, 10 and 30 mg/kg and with compound 366 at 1, 3 and 10 mg/kg are shown in FIG. 4.

rat CB2 receptor (rCB2) = molecular target: T1, rat CB2 receptor (rCB2) (Rattus norvegicus, UniProt Q9QZN9); experiment: cell-based; format: cell-based; details: for +/− RCB2: agonist or inverse agonist at rCB2
T1 sequence (Q9QZN9 1-360): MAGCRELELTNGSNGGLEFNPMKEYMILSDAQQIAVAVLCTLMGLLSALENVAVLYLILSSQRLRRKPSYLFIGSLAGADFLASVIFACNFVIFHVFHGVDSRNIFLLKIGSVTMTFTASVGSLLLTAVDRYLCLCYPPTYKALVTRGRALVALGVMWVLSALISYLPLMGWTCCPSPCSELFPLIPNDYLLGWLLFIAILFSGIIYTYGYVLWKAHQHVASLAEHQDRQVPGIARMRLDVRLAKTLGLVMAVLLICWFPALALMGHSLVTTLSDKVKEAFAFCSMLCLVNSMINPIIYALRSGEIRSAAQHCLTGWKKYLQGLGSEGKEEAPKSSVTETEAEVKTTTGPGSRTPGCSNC
How it was run: (§1)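 First, cells in IBMX-containing HEPES-buffered HBSS are raised to elevated cAMP with 2-8 μM NKH-477 for 30 min. Data are normalised to the forskolin and forskolin + 1 μM CP55,940 controls.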

[1] = molecular target: human CB1 receptor (hCB1) (Homo sapiens, UniProt P21554); experiment: cell-based; format: cell-based; details: for +/− HCB1: agonist or inverse agonist at hCB1
human CB1 receptor (hCB1), sequence (P21554 whole entry): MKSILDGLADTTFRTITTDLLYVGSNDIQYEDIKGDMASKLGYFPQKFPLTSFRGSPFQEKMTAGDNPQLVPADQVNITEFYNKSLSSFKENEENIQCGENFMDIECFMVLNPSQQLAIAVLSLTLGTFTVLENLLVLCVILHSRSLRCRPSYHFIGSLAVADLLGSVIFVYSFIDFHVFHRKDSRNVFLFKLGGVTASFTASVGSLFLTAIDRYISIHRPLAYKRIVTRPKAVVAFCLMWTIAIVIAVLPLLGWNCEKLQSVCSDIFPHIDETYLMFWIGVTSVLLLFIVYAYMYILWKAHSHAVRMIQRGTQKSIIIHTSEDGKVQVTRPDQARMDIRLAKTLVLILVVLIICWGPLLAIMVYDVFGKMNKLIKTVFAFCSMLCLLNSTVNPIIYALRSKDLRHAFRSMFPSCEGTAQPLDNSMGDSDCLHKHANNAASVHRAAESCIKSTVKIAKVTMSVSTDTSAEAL
How it was run: as §1

SMILES: CNC(=O)[C@@H](NC(=O)c1nc(-c2ccccc2)n2c1CN(C)CCC2)C(C)(C)C [Compound 317, (S)-N-(3,3-dimethyl-1-(methylamino)-1-oxobutan-2-yl)-8-methyl-3-phenyl-6,7,8,9-tetrahydro-5H-imidazo[1,5-a][1,4]diazepine-1-carboxamide]
- effect in the neuropathic pain model (rats): dose response in the neuropathic pain model
- +/− RCB2 (rat CB2 receptor (rCB2)): +
- EC50 [1]: > 10000 nM

SMILES: CN1CCCn2c(-c3ccc(F)c(Cl)c3)nc(C(=O)N[C@@H](CC(C)(C)C)C(N)=O)c2C1 [Compound 587, (S)-N-(1-amino-4,4-dimethyl-1-oxopentan-2-yl)-3-(3-chloro-4-fluorophenyl)-8-methyl-6,7,8,9-tetrahydro-5H-imidazo[1,5-a][1,4]diazepine-1-carboxamide]
- +/− RCB2 (rat CB2 receptor (rCB2)): +
- +/− HCB1 [1]: +

SMILES: CN1CCCn2c(-c3ccc(Cl)c(F)c3)nc(C(=O)N[C@@H](CC(C)(C)C)C(N)=O)c2C1 [Compound 588, (S)-N-(1-amino-4,4-dimethyl-1-oxopentan-2-yl)-3-(4-chloro-3-fluorophenyl)-8-methyl-6,7,8,9-tetrahydro-5H-imidazo[1,5-a][1,4]diazepine-1-carboxamide]
- +/− RCB2 (rat CB2 receptor (rCB2)): +
- +/− HCB1 [1]: +

SMILES: CN1CCCn2c(-c3ccc(F)cc3F)nc(C(=O)N[C@@H](CC(C)(C)C)C(N)=O)c2C1 [Compound 589, (S)-N-(1-amino-4,4-dimethyl-1-oxopentan-2-yl)-3-(2,4-difluorophenyl)-8-methyl-6,7,8,9-tetrahydro-5H-imidazo[1,5-a][1,4]diazepine-1-carboxamide]
- +/− RCB2 (rat CB2 receptor (rCB2)): +
- +/− HCB1 [1]: +

SMILES: CN1CCCn2c(-c3cc(F)c(F)cc3F)nc(C(=O)N[C@@H](CC(C)(C)C)C(N)=O)c2C1 [Compound 590, (S)-N-(1-amino-4,4-dimethyl-1-oxopentan-2-yl)-8-methyl-3-(2,4,5-trifluorophenyl)-6,7,8,9-tetrahydro-5H-imidazo[1,5-a][1,4]diazepine-1-carboxamide]
- +/− RCB2 (rat CB2 receptor (rCB2)): +
- +/− HCB1 [1]: +

SMILES: CN1CCCn2c(-c3cc(Cl)c(F)cc3F)nc(C(=O)N[C@@H](CC(C)(C)C)C(N)=O)c2C1 [Compound 591, (S)-N-(1-amino-4,4-dimethyl-1-oxopentan-2-yl)-3-(5-chloro-2,4-difluorophenyl)-8-methyl-6,7,8,9-tetrahydro-5H-imidazo[1,5-a][1,4]diazepine-1-carboxamide]
- +/− RCB2 (rat CB2 receptor (rCB2)): +
- +/− HCB1 [1]: +

SMILES: CNC(=O)[C@H](Cc1cscn1)NC(=O)c1nc(-c2cc(F)c(F)cc2F)n2c1CN(C)CCC2 [Compound 592, (S)-8-methyl-N-(1-(methylamino)-1-oxo-3-(thiazol-4-yl)propan-2-yl)-3-(2,4,5-trifluorophenyl)-6,7,8,9-tetrahydro-5H-imidazo[1,5-a][1,4]diazepine-1-carboxamide]
- EC50 (rat CB2 receptor (rCB2)): > 10000 nM
- EC50 [1]: > 10000 nM

SMILES: CNC(=O)[C@H](Cc1cscn1)NC(=O)c1nc(-c2cc(Cl)c(F)cc2F)n2c1CN(C)CCC2 [Compound 593, (S)-3-(5-chloro-2,4-difluorophenyl)-8-methyl-N-(1-(methylamino)-1-oxo-3-(thiazol-4-yl)propan-2-yl)-6,7,8,9-tetrahydro-5H-imidazo[1,5-a][1,4]diazepine-1-carboxamide]
- +/− RCB2 (rat CB2 receptor (rCB2)): +
- +/− HCB1 [1]: +

SMILES: CNC(=O)[C@@H](NC(=O)c1nc(C2=CCOCC2)n2c1CN(C)CCC2)C(C)(C)C [Compound 594, (S)-3-(3,6-dihydro-2H-pyran-4-yl)-N-(3,3-dimethyl-1-(methylamino)-1-oxobutan-2-yl)-8-methyl-6,7,8,9-tetrahydro-5H-imidazo[1,5-a][1,4]diazepine-1-carboxamide]
- +/− RCB2 (rat CB2 receptor (rCB2)): +
- +/− HCB1 [1]: +

SMILES: CN1CCCn2c(-c3ccccc3)nc(C(=O)Nc3cc(C(C)(C)C)on3)c2C1 [Compound 595, N-(5-tert-butylisoxazol-3-yl)-8-methyl-3-phenyl-6,7,8,9-tetrahydro-5H-imidazo[1,5-a][1,4]diazepine-1-carboxamide]
- +/− RCB2 (rat CB2 receptor (rCB2)): −
- EC50 [1]: > 10000 nM

SMILES: CN1CCCn2c(-c3ccccc3)nc(C(=O)Nc3nc(C(C)(C)C)cs3)c2C1 [Compound 596, N-(4-tert-butylthiazol-2-yl)-8-methyl-3-phenyl-6,7,8,9-tetrahydro-5H-imidazo[1,5-a][1,4]diazepine-1-carboxamide]
- EC50 (rat CB2 receptor (rCB2); groups >100 nM-10 μM and >10 μM, cAMP, CHO-K1 rCB2, read-out: EC50 RCB2): > 10000 nM
- EC50 ([1]; groups >100 nM-10 μM and >10 μM, cAMP, CHO-K1 hCB1, read-out: EC50 HCB1): > 10000 nM

SMILES: CNC(=O)[C@@H](NC(=O)c1nc(Cl)n2c1CNCCC2)C(C)(C)C [Compound 597, (S)-3-chloro-N-(3,3-dimethyl-1-(methylamino)-1-oxobutan-2-yl)-6,7,8,9-tetrahydro-5H-imidazo[1,5-a][1,4]diazepine-1-carboxamide]
- +/− RCB2 (rat CB2 receptor (rCB2)): +
- EC50 [1]: > 10000 nM

SMILES: CNC(=O)[C@@H](NC(=O)c1nc(Cl)n2c1CN(C)CCC2)C(C)(C)C [Compound 598, (S)-3-chloro-N-(3,3-dimethyl-1-(methylamino)-1-oxobutan-2-yl)-8-methyl-6,7,8,9-tetrahydro-5H-imidazo[1,5-a][1,4]diazepine-1-carboxamide]
- +/− RCB2 (rat CB2 receptor (rCB2)): +
- EC50 [1]: > 10000 nM

SMILES: CNC(=O)[C@@H](NC(=O)c1nc(-c2cc(C(F)(F)F)cc(C(F)(F)F)c2)n2c1CN(C)CCC2)C(C)(C)C [Compound 599, (S)-3-(3,5-bis(trifluoromethyl)phenyl)-N-(3,3-dimethyl-1-(methylamino)-1-oxobutan-2-yl)-8-methyl-6,7,8,9-tetrahydro-5H-imidazo[1,5-a][1,4]diazepine-1-carboxamide]
- EC50 (rat CB2 receptor (rCB2)): > 10000 nM
- EC50 [1]: > 10000 nM

SMILES: CNC(=O)[C@@H](NC(=O)c1nc(-c2ccc(Br)cc2F)n2c1CN(C)CCC2)C(C)(C)C [Compound 600, (S)-3-(4-bromo-2-fluorophenyl)-N-(3,3-dimethyl-1-(methylamino)-1-oxobutan-2-yl)-8-methyl-6,7,8,9-tetrahydro-5H-imidazo[1,5-a][1,4]diazepine-1-carboxamide]
- EC50 (rat CB2 receptor (rCB2)): > 10000 nM
- +/− HCB1 [1]: +

SMILES: CNC(=O)[C@@H](NC(=O)c1nc(-c2c(F)cccc2F)n2c1CN(C)CCC2)C(C)(C)C [Compound 601, (S)-3-(2,6-difluorophenyl)-N-(3,3-dimethyl-1-(methylamino)-1-oxobutan-2-yl)-8-methyl-6,7,8,9-tetrahydro-5H-imidazo[1,5-a][1,4]diazepine-1-carboxamide]
- +/− RCB2 (rat CB2 receptor (rCB2)): +
- +/− HCB1 [1]: +

SMILES: CNC(=O)[C@@H]1CCCN1C(=O)c1nc(-c2ccccc2)n2c1CNCCC2 [Compound 602]
- EC50 (rat CB2 receptor (rCB2)): > 10000 nM
- +/− HCB1 [1]: −

SMILES: CNC(=O)[C@@H]1CCCN1C(=O)c1nc(-c2ccccc2)n2c1CN(C)CCC2 [Compound 603, (S)-N-methyl-1-(8-methyl-3-phenyl-6,7,8,9-tetrahydro-5H-imidazo[1,5-a][1,4]diazepine-1-carbonyl)pyrrolidine-2-carboxamide]
- EC50 (rat CB2 receptor (rCB2)): > 10000 nM
- EC50 [1]: > 10000 nM

SMILES: CNC(=O)C(NC(=O)c1nc(-c2ccccc2)n2c1CNCCC2)C(C)(C)F (stereo not drawn) [Compound 604, N-(3-fluoro-3-methyl-1-(methylamino)-1-oxobutan-2-yl)-3-phenyl-6,7,8,9-tetrahydro-5H-imidazo[1,5-a][1,4]diazepine-1-carboxamide]
- +/− RCB2 (rat CB2 receptor (rCB2)): +
- EC50 [1]: > 10000 nM

SMILES: CNC(=O)C(NC(=O)c1nc(-c2ccccc2)n2c1CN(C)CCC2)C(C)(C)F (stereo not drawn) [Compound 605, N-(3-fluoro-3-methyl-1-(methylamino)-1-oxobutan-2-yl)-8-methyl-3-phenyl-6,7,8,9-tetrahydro-5H-imidazo[1,5-a][1,4]diazepine-1-carboxamide]
- +/− RCB2 (rat CB2 receptor (rCB2)): +
- EC50 [1]: > 10000 nM

SMILES: CNC(=O)[C@@H](NC(=O)c1nc(-c2ccccc2)n2c1CNCCC2)C(C)(C)O [Compound 606, (S)-N-(3-hydroxy-3-methyl-1-(methylamino)-1-oxobutan-2-yl)-3-phenyl-6,7,8,9-tetrahydro-5H-imidazo[1,5-a][1,4]diazepine-1-carboxamide]
- +/− RCB2 (rat CB2 receptor (rCB2)): +
- EC50 [1]: > 10000 nM

SMILES: CNC(=O)[C@@H](NC(=O)c1nc(-c2ccccc2)n2c1CN(C)CCC2)C(C)(C)O [Compound 607, (S)-N-(3-hydroxy-3-methyl-1-(methylamino)-1-oxobutan-2-yl)-8-methyl-3-phenyl-6,7,8,9-tetrahydro-5H-imidazo[1,5-a][1,4]diazepine-1-carboxamide]
- +/− RCB2 (rat CB2 receptor (rCB2)): +
- EC50 [1]: > 10000 nM
